From patent US9884823B2, “Oxime ether acetate compound, preparation method therefor and weeding application thereof” (ZHEJIANG UNIVERSITY OF TECHNOLOGY, priority 2014, dated 2018)
Like-named read-outs stand apart in the source and are kept apart here.

Tests used:
Wheat = assay: Culture dish method (general screening); type: in vivo; conditions: 100 mg/L, 7 days
Excerpt: (§3) Culture dish method (general screening): The test targets were radish, cucumber, rape, wheat, sorghum and barnyard grass; the seeds of wheat, sorghum and radish were germinated in advance, and the uniform emerge-germinating seeds were used in the test.

Chinese sorghum = assay: Culture dish method (general screening); type: in vivo; conditions: 100 mg/L, 7 days
Excerpt: as §3

Barnyardgrass [1] = assay: Culture dish method (general screening); type: in vivo, barnyard grass; conditions: 100 mg/L, 7 days
Excerpt: as §3

Cucumber = assay: Culture dish method (general screening); type: in vivo; conditions: 100 mg/L, 7 days
Excerpt: as §3

Rape = assay: Culture dish method (general screening); type: in vivo; conditions: 100 mg/L, 7 days
Excerpt: as §3

Radish = assay: Culture dish method (general screening); type: in vivo; conditions: 100 mg/L, 7 days
Excerpt: as §3

Abutilon = assay: Potted plants live body test; type: in vivo; conditions: 150 g a.i./ha
Excerpt: (§1) The raw drug which was selected from the compounds in table 1 was weighed using an analytical balance (0.0001 g), and dissolved in DMF containing 1 wt % Tween-80 emulsifier to prepare a mother liquor of raw drug with a mass concentration of 1.0˜5.0%, and then diluted with distilled water, to prepare preparations at desired concentrations according to the ratio of ingredients in Examples 8, 9 and 10.
(§2) The test targets were mustard, small quinoa, Abutilon, amaranthus retroflexus, Eclipta prostrata, crabgrass, dog point. A pot with a diameter of 7.5 cm was used, filled with composite soil (garden soil:nursery matrix, 1:2, v/v) to ¾ of the pot, then the above […] kinds of weeds targets were directly seeded (germination rate ≧85%), covered with soil at a thickness of 0.2 cm. When the weeds grew to 3-leaf stage, pre-emergence soil treatment for weeds planting, and then spraying was performed.

Crabgrass = assay: Potted plants live body test; type: in vivo; conditions: 150 g a.i./ha
Excerpt: as §1, §2

Dog point = assay: Potted plants live body test; type: in vivo; conditions: 150 g a.i./ha
Excerpt: as §1, §2

Eclipta prostrata = assay: Potted plants live body test; type: in vivo; conditions: 150 g a.i./ha; for efficiency, Eclipta prostrata: 30 days, Table 9
Excerpt: as §1, §2

amaranthus retroflexus = assay: Potted plants live body test; type: in vivo; conditions: 150 g a.i./ha
Excerpt: as §1, §2

Small quinoa = conditions: 150 g a.i./ha, 30 days, Table 9
Excerpt: as §1, §2

[2] = tested on: broadleaf weeds such as mustard, small quinoa, Abutilon, Amaranthus retroflexus and Eclipta prostrate; conditions: 150 g a.i./ha; for herbicidal activity on broadleaf weeds targets: 30 days after administration, Table 9 summary; for activity on the growth of broadleaf weeds: postemergence spraying, 30 days, vs clear water control
Excerpt: as §1, §2

[3] = tested on: grass weeds such as crabgrass, barnyard grass, dog point; conditions: 150 g a.i./ha; for activity for grass targets such as crabgrass and dog point: 30 days after administration, Table 9 summary; for activity on grass weeds such as crabgrass, dog point: postemergence spraying, 30 days
Excerpt: as §1, §2

Mustard = conditions: 150 g a.i./ha, 30 days, Table 9
Barnyardgrass [4] = assay: Potted plants live body test; type: in vivo, barnyard grass; conditions: postemergence spraying; 150 g a.i./ha; Table 10
[5] = Postemergence spraying, 30 days, Table 9
[6] = Pre-emergence soil treatment, 30 days, Table 9
[7] = postemergence spraying, Table 10

| Compound | inhibition rate, Wheat Root (Wheat) [%] | inhibition rate, Wheat Stem (Wheat) [%] | inhibition rate, Chinese sorghum Root (Chinese sorghum) [%] | inhibition rate, Chinese sorghum Stem (Chinese sorghum) [%] | inhibition rate, Barnyardgrass Root (Barnyardgrass [1]) [%] | inhibition rate, Barnyardgrass Stem (Barnyardgrass [1]) [%] | inhibition rate, Cucumber Root (Cucumber) [%] | inhibition rate, Cucumber Stem (Cucumber) [%] | inhibition rate, Rape Root (Rape) [%] | inhibition rate, Rape Stem (Rape) [%] | inhibition rate, Radish Root (Radish) [%] | inhibition rate, Radish Stem (Radish) [%] | efficiency, Abutilon (Abutilon; [5]) [%] | efficiency, Abutilon (Abutilon; [6]) [%] | efficiency, Crabgrass (Crabgrass; [5]) [%] | efficiency, Crabgrass (Crabgrass; [6]) [%] | efficiency, Dog point (Dog point; [5]) [%] | efficiency, Dog point (Dog point; [6]) [%] | efficiency, Eclipta prostrata (Eclipta prostrata; Postemergence spraying) [%] | efficiency, Eclipta prostrata (Eclipta prostrata; Pre-emergence soil treatment) [%] | other results |
| --- | --- | --- | --- | --- | --- | --- | --- | --- | --- | --- | --- | --- | --- | --- | --- | --- | --- | --- | --- | --- | --- |
| CON=C(C(=O)OC)c1ccccc1COc1ccc(-c2cccc(C)n2)cc1 [Compound 120] | 20 | 0 | 50 | 30 | 60 | 20 | 70 | 30 | 60 | 0 | 50 | 0 | 50 | 0 | 0 | 0 | 0 | 0 | 30 | 0 | efficiency, amaranthus retroflexus (amaranthus retroflexus; [5]): 20%; efficiency, amaranthus retroflexus (amaranthus retroflexus; [6]): 0%; efficiency, Small quinoa (Small quinoa; Postemergence spraying): 60%; efficiency, Small quinoa (Small quinoa; Pre-emergence soil treatment): 50%; herbicidal activity on broadleaf weeds targets [2]: herbicidal activity; activity on the growth of broadleaf weeds [2]: inhibitory activity; activity for grass targets such as crabgrass and dog point [3]: poor activity; activity on grass weeds such as crabgrass, dog point [3]: almost have no activity; efficiency, Mustard (Mustard; Postemergence spraying): 40%; efficiency, Mustard (Mustard; Pre-emergence soil treatment): 20% |
| CON=C(C(=O)OC)c1ccccc1COc1cccc(-c2ncc(Cl)cc2Cl)c1 [Compound 98] | 20 | 0 | 50 | 30 | 60 | 20 | 50 | 80 | 50 | 80 | 50 | 80 | 80 | 60 | 0 | 0 | 0 | 0 | 80 | 50 | efficiency, amaranthus retroflexus (amaranthus retroflexus; [5]): 80%; efficiency, amaranthus retroflexus (amaranthus retroflexus; [6]): 50%; efficiency, Small quinoa (Small quinoa; Postemergence spraying): 75%; efficiency, Small quinoa (Small quinoa; Pre-emergence soil treatment): 45%; herbicidal activity on broadleaf weeds targets [2]: herbicidal activity; activity on the growth of broadleaf weeds [2]: inhibitory activity; activity for grass targets such as crabgrass and dog point [3]: poor activity; activity on grass weeds such as crabgrass, dog point [3]: almost have no activity; efficiency, Mustard (Mustard; Postemergence spraying): 100%; efficiency, Mustard (Mustard; Pre-emergence soil treatment): 50% |
| COc1cc(OC)nc(Oc2ccccc2CNc2ccc(C(=O)OC(C)C)cc2)n1 [Pyribambenz isopropyl, reference compound] | 95 | 95 | 100 | 90 | 100 | 95 | 95 | 90 | 100 | 100 | 100 | 90 |  |  |  |  |  |  |  |  | efficiency, Abutilon (Abutilon; [7]): 0%; efficiency, Crabgrass (Crabgrass; [7]): 50%; efficiency, Dog point (Dog point; [7]): 80%; efficiency, Eclipta prostrate (Eclipta prostrata; [7]): 0%; efficiency, amaranthus retroflexus (amaranthus retroflexus; [7]): 70%; efficiency, Barnyardgrass (Barnyardgrass [4]): 50% |
